Assays:
[1] = target: T1, motor domain of human KSP (Eg 5, KNSL1) (Homo sapiens, UniProt P52732); experiment: Assay for determining KSP activity (microtubule/KSP ATPase, Biomol Green); format: biochemical; conditions: read-out: In vitro activity (IC-50 - nm)
T1 construct: KSP motor protein (i.e., the KSP motor domain); made in house
T1 sequence (P52732 18-359 limits assumed): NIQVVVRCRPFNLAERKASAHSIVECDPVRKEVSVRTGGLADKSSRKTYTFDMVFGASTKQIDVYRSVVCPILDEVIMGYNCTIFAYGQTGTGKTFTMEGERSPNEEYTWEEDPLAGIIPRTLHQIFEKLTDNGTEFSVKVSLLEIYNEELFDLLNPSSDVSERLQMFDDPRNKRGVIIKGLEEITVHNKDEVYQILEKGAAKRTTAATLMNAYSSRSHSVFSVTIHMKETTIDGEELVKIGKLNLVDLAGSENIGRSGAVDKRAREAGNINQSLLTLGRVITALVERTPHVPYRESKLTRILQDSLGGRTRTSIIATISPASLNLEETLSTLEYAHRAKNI
Description: Purified microtubules obtained from bovine brain were purchased from Cytoskeleton Inc. (Denver, Colo., USA). The motor domain of human KSP (Eg 5, KNSL1) was cloned, expressed, and purified to greater than 95% homogeneity. Biomol Green™ was purchased from Affinity Research Products Ltd. (Matford Court, Exeter, Devon, United Kingdom). Microtubules and KSP motor protein (i.e., the KSP motor domain) were diluted in assay buffer (20 mM Tris-HCl (pH 7.5), 1 mM MgCl2, 10 mM DTT and 0.25 mg/mL BSA) to a final concentration of 35 μg/mL microtubules and 45 nM KSP. The microtubule/KSP mixture was then pre-incubated at 37° C. for 10 min to promote the binding of KSP to microtubules.
To each well of the testing plate (384-well plate) containing 1.25 μL of inhibitor or test compound in DMSO (or DMSO only, in the case of controls) were added 25 μL of ATP solution (ATP diluted to a concentration of 300 μM in assay buffer) and 25 μL of the above-described microtubule/KSP solution. The plates were incubated at RT for 1 hour. Following incubation, 65 μL of Biomol Green™ (a malachite green-based dye that detects the release of inorganic phosphate) was added to each well. The plates were incubated for an additional 5-10 minutes then the absorbance at 630 nm was determined using a Victor II plate reader. The amount of absorbance at 630 nm corresponded to the amount of KSP activity in the samples. The IC50 of each inhibitor or test compound was then determined based on the decrease in absorbance at 630 nm at each concentration, via nonlinear regression using either XLFit for Excel or Prism data analysis software by GraphPad Software Inc.

[2] = system: primary blast cells from AML patients; experiment: Cell cycle analysis using propidium iodide staining, AML blasts; format: cell-based, human; conditions: 0.2 and 2 nM
Description: Primary blast cells from AML patients were tested for sensitivity to compound IIa as shown below. Frozen AML blasts from peripheral blood were obtained from AllCell LLC. (Emeryville, Calif.). Three frozen vials containing ˜1×10^7 PBMCs were purchased. Peripheral blood mononuclear cells (PBMCs) from three newly diagnosed AML patients with a high percentage of blasts (#06-188, 80%; #06-366, 88%; #06-503, 73%) were cultured for several weeks and treated with the KSP inhibitors. The vials were rapidly thawed and the cells were cultured in Iscove's DMEM supplemented with 10% FBS and the following cytokines all at 10 ng/ml: GM-CSF, G-CSF, SCF, IL-3, and IL-6 (all from R&D Systems). Three assays were performed on the cells as follows: • CellTiter-Glo® assay on AML blasts. PBMCs containing AML blasts were seeded in 96-well plates (5000/well) and treated with various concentrations of the compound IIa (10 pM to 10 nM) for 48 hours before cells survival was measured as described above. GI50 values (nM) were calculated as for cell lines. • Cell cycle analysis using propidium iodide staining. […] The DNA content of the fixed and stained cells was analyzed by the BD FACSCalibur flow cytometer using the CellQuest software. • Colony formation assay in methylcellulose containing medium. […] Colonies were counted under a microscope after 2 weeks. […]

[3] = system: KB8.5; experiment: CellTiter-Glo proliferation, 72 hours; format: cell-based; conditions: Homo sapiens; Epidermoid, KB8.5, 72 hours
[4] = In vivo pharmacokinetic parameters (clearance, half-life, AUC)

Structure (SMILES): CC(C)(C)[C@H](c1nc(-c2cc(F)ccc2F)cn1Cc1ccccc1)N(CC[C@H](N)CF)C(=O)CO [Compound IIa]
- IC50 [1]: 0.8 nM
- cell cycle profile, 4N population ([2]; sample #06-366, 24 hours): increase in the number of cells arrested in mitosis
- cell cycle profile, <2N population ([2]; sample #06-366, 48 hours): increase in the number of dying cells
- GI50 [3]: 0.5 nM
- AUC [4]: 1.93 µg·h/mL
- half-life [4]: 1.83 h
- clearance ([4]; read-out: In vivo Clearance rate): 2.46 L/h/kg

Reference: patent publication US8252832B2, “Kinesin inhibitors as cancer therapeutics” (Novartis AG, priority 2007, dated 2012)
